Assay results as given in ChEMBL document CHEMBL1135212, “Evolution, synthesis and SAR of tripeptide alpha-ketoacid inhibitors of the hepatitis C virus NS3/NS4A serine protease” (Bioorg Med Chem Lett, 2002).
pIC50, pKi: −log10 of the molar value. Square brackets hold non-standard residues; d marks the D form. Peptide text beside a SMILES is read from it. Dip = N[C@H](C(=O)O)C(c1ccccc1)c1ccccc1; Abu(4,4-F2) = N[C@@H](CC(F)F)C(=O)O; Cha = N[C@@H](CC1CCCCC1)C(=O)O

What follows are compounds tested against Genome polyprotein (Hepatitis C virus genotype 1a (isolate 1) (HCV), UniProt P26664) (assay: Inhibition to hepatitis C virus (HCV) NS3/NS4A serine protease).
Genome polyprotein, sequence (P26664 1027-1657 limits assumed): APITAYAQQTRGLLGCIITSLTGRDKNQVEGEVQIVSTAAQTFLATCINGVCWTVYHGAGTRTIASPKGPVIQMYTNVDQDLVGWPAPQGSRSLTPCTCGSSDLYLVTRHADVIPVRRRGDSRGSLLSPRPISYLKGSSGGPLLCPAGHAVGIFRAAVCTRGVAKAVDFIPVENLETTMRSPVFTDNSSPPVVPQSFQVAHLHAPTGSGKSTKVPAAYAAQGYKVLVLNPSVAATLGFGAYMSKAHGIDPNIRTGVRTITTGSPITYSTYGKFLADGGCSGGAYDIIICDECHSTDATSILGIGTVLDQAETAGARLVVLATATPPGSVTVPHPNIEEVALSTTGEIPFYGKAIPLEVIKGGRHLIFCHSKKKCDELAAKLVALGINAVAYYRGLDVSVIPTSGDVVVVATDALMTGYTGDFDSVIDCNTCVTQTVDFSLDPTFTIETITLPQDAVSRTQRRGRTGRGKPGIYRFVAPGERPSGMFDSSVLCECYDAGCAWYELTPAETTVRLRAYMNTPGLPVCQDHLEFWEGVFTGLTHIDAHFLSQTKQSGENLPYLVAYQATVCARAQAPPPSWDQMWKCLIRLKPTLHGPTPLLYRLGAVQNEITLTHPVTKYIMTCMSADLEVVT
Genome polyprotein, sequence (P26664 1658-1711 limits assumed): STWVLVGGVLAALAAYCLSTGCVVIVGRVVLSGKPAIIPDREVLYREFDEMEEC

Going from `CC[C@H](C)[C@H](NC(=O)OCc1ccccc1)C(=O)N[C@@H](CC(C)C)C(=O)N[C@@H](CC(F)F)C(=O)C(=O)O` to `CCC(C)[C@H](NC(=O)OCc1ccccc1)C(=O)N[C@@H](CC(C)C)C(=O)N[C@@H](CC(F)F)C(=O)C(=O)OC` (stereo partly drawn), the pIC50 falls from 5.77 to < 4.30.

`CC(C)(C)OC(=O)N[C@@H](CCC(=O)O)C(=O)N[C@@H](CC(F)F)C(=O)N[C@@H](CC(F)F)C(=O)C(=O)O` and `CC(C)C[C@H](NC(=O)[C@H](CCC(=O)O)NC(=O)OC(C)(C)C)C(=O)N[C@@H](CC(F)F)C(=O)C(=O)O` are within 0.2 log units of each other in pIC50: 6.52 for the first, 6.48 for the second.

Compared with `CC(=O)N[C@H](C(=O)[C@H](CCC(=O)O)N[C@@H](CC1CCCCC1)C(=O)N[C@@H](CC(F)F)C(=O)O)C(c1ccccc1)c1ccccc1`, `CC(=O)N[C@H](C(=O)[C@H](CCC(=O)O)N[C@@H](CC1CCCCC1)C(=O)N[C@@H](CC(F)F)C(=O)C(=O)O)C(c1ccccc1)c1ccccc1` is higher in pIC50: < 4.30 for the first, 5.28 for the second.

`CC[C@H](C)[C@H](NC(=O)OCc1ccccc1)C(=O)N[C@@H](CC(C)C)C(=O)N[C@@H](CC(F)F)C(=O)c1nnn[nH]1` and `CC[C@H](C)[C@H](NC(=O)OCc1ccccc1)C(=O)N[C@@H](CC(C)C)C(=O)N[C@H](C=O)CC(F)F` cannot be ordered by pIC50: < 4.30 for the first, < 4.30 for the second.

First: CC[C@H](C)[C@H](NC(=O)OCc1ccccc1)C(=O)N[C@@H](CC1CCCCC1)C(=O)N[C@@H](CC(F)F)C(=O)C(=O)O
Second: CC[C@H](NC(=O)[C@@H](NC(=O)OCc1ccccc1)[C@@H](C)CC)C(=O)N[C@@H](CC(F)F)C(=O)C(=O)O
The pIC50 of the first is 0.37 log units higher: 5.85 for the first, 5.48 for the second. The first is the more potent here.

`CCC(C)[C@H](NC(=O)OCc1ccccc1)C(=O)N[C@@H](CC(C)C)C(=O)N[C@H](CC(=O)O)CC(F)F` (stereo partly drawn) and `CCC(C)[C@H](NC(=O)OCc1ccccc1)C(=O)N[C@@H](CC(C)C)C(=O)N[C@@H](CC(F)F)C(O)C(=O)O` (stereo partly drawn) cannot be ordered by pIC50: < 4.30 for the first, < 4.30 for the second.

First: CCC(C)[C@H](NC(=O)NCc1ccccc1)C(=O)N[C@@H](CC(C)C)C(=O)N[C@@H](CC(F)F)C(=O)C(=O)O (stereo partly drawn)
Second: CCC(C)[C@H](NC(=O)OCc1ccccc1)C(=O)N[C@H](C(=O)N[C@@H](CC(F)F)C(=O)C(=O)O)C(C)C (stereo partly drawn)
The pIC50 of the first is 0.68 log units higher: 5.48 for the first, 4.80 for the second. The first is the more potent here.

First: CC[C@H](C)[C@H](NC(C)=O)C(=O)N[C@@H](CC(C)C)C(=O)N[C@@H](CC(F)F)C(=O)C(=O)O
Second: CC[C@H](C)[C@H](NC(=O)OC(C)(C)C)C(=O)N[C@@H](CC(C)C)C(=O)N[C@@H](CC(F)F)C(=O)C(=O)O
The pIC50 of the first is 1.20 log units lower: 4.80 for the first, 6.00 for the second. The second is the more potent here.

Going from `CC(=O)N[C@H](C(=O)[C@H](CCC(=O)O)N[C@@H](CC1CCCCC1)C(=O)N[C@H](C=O)CC(F)F)C(c1ccccc1)c1ccccc1` to `CCC(C)[C@H](NC(=O)OCc1ccccc1)C(=O)N[C@@H](Cc1ccccc1)C(=O)N[C@@H](CC(F)F)C(=O)C(=O)O` (stereo partly drawn), the pIC50 rises from < 4.30 to 5.03. The second is the more potent here.

`CC(C)C[C@H](NC(=O)[C@H](CC(=O)O)NC(=O)OC(C)(C)C)C(=O)N[C@@H](CC(F)F)C(=O)C(=O)O` and `CC(C)C[C@H](NC(=O)[C@H](CCC(N)=O)NC(=O)OC(C)(C)C)C(=O)N[C@@H](CC(F)F)C(=O)C(=O)O` are within 0.2 log units of each other in pIC50: 5.79 for the first, 5.68 for the second.

Going from `CC(C)C[C@H](NC(=O)[C@@H](NC(=O)OC(C)(C)C)C1CCCC1)C(=O)N[C@@H](CC(F)F)C(=O)C(=O)O` to `CC(C)C[C@H](NC(=O)[C@H](C)NC(=O)OC(C)(C)C)C(=O)N[C@@H](CC(F)F)C(=O)C(=O)O`, the pIC50 falls from 6.42 to 5.05 (1.37 log units). The first is the more potent here.

Going from `CCC(C)[C@H](NC(=O)OCc1ccc(C(=O)OC)cc1)C(=O)N[C@@H](CC(C)C)C(=O)N[C@@H](CC(F)F)C(=O)C(=O)O` (stereo partly drawn) to `CCC(C)[C@H](NC(=O)OCc1ccc(C(=O)O)cc1)C(=O)N[C@@H](CC(C)C)C(=O)N[C@@H](CC(F)F)C(=O)C(=O)O` (stereo partly drawn), the pIC50 rises from 5.77 to 6.36 (0.59 log units).

Compared with `CC[C@H](C)[C@H](NC(=O)OCc1ccccc1)C(=O)NCC(=O)N[C@@H](CC(F)F)C(=O)C(=O)O`, `CC[C@H](C)[C@H](NC(=O)OCc1ccccc1)C(=O)N[C@@H](C)C(=O)N[C@@H](CC(F)F)C(=O)C(=O)O` is higher in pIC50: < 4.00 for the first, 4.81 for the second.

`CC(C)C[C@H](NC(=O)[C@@H](NC(=O)OC(C)(C)C)C(C)C)C(=O)N[C@@H](CC(F)F)C(=O)C(=O)O` showed a pIC50 of 6.34.

Each compound was assayed against Hepatitis C virus serine protease, NS3/NS4A (Hepatitis C virus, UniProt A3EZI9+D2K2A8) (assay: Inhibitory activity against hepatitis C virus (HCV) NS3/NS4A serine protease).
Type: protein-complex assay, Hepacivirus hominis

Hepatitis C virus serine protease, NS3/NS4A, sequence (D2K2A8 whole entry): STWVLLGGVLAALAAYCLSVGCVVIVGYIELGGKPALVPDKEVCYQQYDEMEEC
Hepatitis C virus serine protease, NS3/NS4A, sequence (A3EZI9 whole entry): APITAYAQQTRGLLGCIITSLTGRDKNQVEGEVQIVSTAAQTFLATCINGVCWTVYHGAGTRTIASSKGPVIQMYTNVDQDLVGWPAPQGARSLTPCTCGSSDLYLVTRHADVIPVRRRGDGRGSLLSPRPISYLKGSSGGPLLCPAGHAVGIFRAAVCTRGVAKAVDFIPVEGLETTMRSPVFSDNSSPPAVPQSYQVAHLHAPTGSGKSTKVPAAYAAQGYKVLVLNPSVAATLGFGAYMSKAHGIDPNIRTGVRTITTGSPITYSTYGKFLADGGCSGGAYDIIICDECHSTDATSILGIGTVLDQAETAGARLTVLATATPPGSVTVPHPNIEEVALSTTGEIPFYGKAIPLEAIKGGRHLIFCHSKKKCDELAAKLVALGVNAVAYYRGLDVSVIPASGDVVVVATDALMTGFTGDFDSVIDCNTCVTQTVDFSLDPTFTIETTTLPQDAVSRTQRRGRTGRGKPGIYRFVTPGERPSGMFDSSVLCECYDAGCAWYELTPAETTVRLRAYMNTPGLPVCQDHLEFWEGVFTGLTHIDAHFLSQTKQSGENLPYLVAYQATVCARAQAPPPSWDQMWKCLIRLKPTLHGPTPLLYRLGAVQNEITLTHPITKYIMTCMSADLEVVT

`CC(=O)N[C@@H](CC(=O)O)C(=O)N[C@@H](CCC(=O)O)C(=O)N[C@H](C(=O)N[C@@H](CCC(=O)O)C(=O)N[C@@H](CC1CCCCC1)C(=O)N[C@@H](CC(F)F)C(=O)O)C(c1ccccc1)c1ccccc1` (Ac-DE[Dip]E[Cha][Abu(4,4-F2)]-OH) showed a pKi of 7.40.
